The data set in a line: activity coefficient (dimensionless); of the first substance listed, at infinite dilution; xn = mol fraction of the nth substance listed. To be noted: 101 kPa, Liquid, Chromatography, x1 = 0.

SMILES strings stand for the structures. ± gives the expanded uncertainty stated by the source.

On to `CC(C)=O` [acetone] + CCCCn1cc[n+](C)c1.[Cl-], for which the activity coefficient is, setting by setting: (358.15 K) 3.05 ± 0.21; (368.15 K) 3.12 ± 0.21; (378.15 K) 3.17 ± 0.22; (388.15 K) 3.27 ± 0.22.

In the case of `Cc1cccc(C)c1` [1,3-dimethylbenzene] + CCCCn1cc[n+](C)c1.CS(=O)(=O)[O-], the activity coefficient reads like this: (358.15 K) 9.27 ± 0.63; (368.15 K) 9.43 ± 0.64; (378.15 K) 9.57 ± 0.65; (388.15 K) 9.92 ± 0.68.

Turning to `CCCC=O` [butanal] + CCCCn1cc[n+](C)c1.[Cl-], the activity coefficient is 5.24 ± 0.36 (358.15 K), 5.31 ± 0.36 (368.15 K), 5.43 ± 0.37 (378.15 K) and 5.54 ± 0.38 (388.15 K).

With `CCCCCCCCC` [nonane] + CCCCn1cc[n+](C)c1.COP(=O)([O-])OC, the activity coefficient (358.15 K) came to 67.9 ± 4.7, the activity coefficient (368.15 K) was 64 ± 4.4, the activity coefficient (378.15 K) was determined as 61.5 ± 4.2 and the activity coefficient (388.15 K) is 59.1 ± 4.

For `c1ccncc1` [pyridine] + CCCCn1cc[n+](C)c1.CS(=O)(=O)[O-], the activity coefficient by setting is: (358.15 K) 10.9 ± 0.75; (368.15 K) 10.8 ± 0.74; (378.15 K) 10.6 ± 0.72; (388.15 K) 10.5 ± 0.71.

Consider `CO` [methanol] + CCCCn1cc[n+](C)c1.[Cl-], for which the activity coefficient runs as follows: (398.15 K) 0.156 ± 0.029; (408.15 K) 0.166 ± 0.029; (418.15 K) 0.176 ± 0.029; (428.15 K) 0.191 ± 0.029.

As for `CCCCCCCC` [octane] + CCCCn1cc[n+](C)c1.COP(=O)([O-])OC, the activity coefficient reads like this: (358.15 K) 47.9 ± 3.3; (368.15 K) 46.2 ± 3.2; (378.15 K) 44.6 ± 3; (388.15 K) 43.4 ± 3.

Consider `CC(C)(C)O` [2-methylpropan-2-ol] + CCCCn1cc[n+](C)c1.COP(=O)([O-])OC, for which the activity coefficient stood at 0.419 ± 0.035 (398.15 K), 0.471 ± 0.037 (408.15 K), 0.527 ± 0.039 (418.15 K) and 0.592 ± 0.042 (428.15 K).

For the compound `Cc1ccccc1` [toluene] + CCCCn1cc[n+](C)c1.COP(=O)([O-])OC, the activity coefficient runs as follows: (358.15 K) 3.86 ± 0.26; (368.15 K) 3.99 ± 0.27; (378.15 K) 4.09 ± 0.28; (388.15 K) 4.29 ± 0.29.

With `COC(C)(C)C` [2-methoxy-2-methylpropane] + CCCCn1cc[n+](C)c1.CS(=O)(=O)[O-], the activity coefficient was determined as 17 ± 1.2 (358.15 K), 17.4 ± 1.2 (368.15 K), 17.9 ± 1.2 (378.15 K) and 18.6 ± 1.3 (388.15 K).

As for `CC(C)O` [propan-2-ol] + CCCCn1cc[n+](C)c1.CS(=O)(=O)[O-], the activity coefficient is 0.835 ± 0.054 (398.15 K), 0.878 ± 0.056 (408.15 K), 0.928 ± 0.059 (418.15 K) and 0.976 ± 0.061 (428.15 K).

Regarding `CCCC(C)=O` [pentan-2-one] + CCCCn1cc[n+](C)c1.[Cl-], the activity coefficient is, setting by setting: (358.15 K) 7.59 ± 0.52; (368.15 K) 7.71 ± 0.53; (378.15 K) 7.78 ± 0.53; (388.15 K) 8.01 ± 0.55.

In the case of `CC#N` [acetonitrile] + CCCCn1cc[n+](C)c1.COP(=O)([O-])OC, the activity coefficient reads like this: (358.15 K) 0.88 ± 0.06; (368.15 K) 0.92 ± 0.06; (378.15 K) 0.95 ± 0.06; (388.15 K) 1 ± 0.06.

For the compound `CC(C)OC(C)C` [diisopropyl ether] + CCCCn1cc[n+](C)c1.[Cl-], the activity coefficient reads like this: (358.15 K) 78.5 ± 5.4; (368.15 K) 71.7 ± 4.9; (378.15 K) 64 ± 4.4; (388.15 K) 59.1 ± 4.

Consider `C=CCCCCCCCC` [1-decene] + CCCCn1cc[n+](C)c1.[Cl-], for which the activity coefficient by setting is: (358.15 K) 323 ± 22; (368.15 K) 306 ± 21; (378.15 K) 285 ± 20; (388.15 K) 277 ± 19.

The values are drawn from the NIST ThermoML archive (doi:10.1016/j.jct.2015.07.042).
